Test results reported in US4639510A, “(1-S-acetamidomethyl cysteine, 7-alanine)calcitonin” (Armour Pharmaceutical Company, priority 1985, dated 1987).

Tested on: serum calcium concentration
Assay: Biological assay of calcitonin analogs in vivo: reduction of serum calcium concentration vs synthetic salmon calcitonin standard
Design: species or system Rats
Experimental: Biological Assay Of Calcitonin Analogs In Vivo
The biological potency of [S-Acm-Cys',Ala^7 ]salmon calcitonin was determined by comparing the reduction of serum calcium concentration which followed administration by graded doses of [S-Acm-Cys^1,Ala^7 ]SCT and synthetic salmon calcitonin standard. Rats were divided into four groups of seven animals, and each group was assigned at random to a dose of standard or test solution. Low and high doses were chosen from the linear portion of the dose-response curve. For the salmon calcitonin standard, the values were 0.7 and 2.1 mcg. peptide/100 g. body weight (BW). This dose approximates 3 and 9 MU/100 g. BW. Peptides were given by subcutaneous injection (0.2 ml/100 g. BW) and blood was withdrawn 1 hour later for serum calcium determination. Sera are processed and analyzed within two hours of collection. […]. Results were analyzed by a 2×2 parallel line assay [Gaddum, J. H., J. Pharm. Pharmacol., 6, 345 (1953)]. The standard salmon calcitonin used was independently determined to contain greater than 4,000 IU/mg. [S-Acm-Cys^1,Ala^7 ]SCT assayed at 6300 IU/mg, (95% 5800-6900).

Salmon calcitonin
biological potency of the standard (independently determined content) (standard salmon calcitonin used in the assay, independently determined): greater than 4,000 IU/mg

[S-Acm-Cys^1,Ala^7)]salmon calcitonin [[S-Acm-Cys^1,Ala^7]SCT]
biological potency (rats, subcutaneous injection, serum calcium 1 hour later, 2×2 parallel line assay vs salmon calcitonin standard, 95% 5800-6900): 6300 IU/mg
